{"source": "ChEMBL document CHEMBL1131691", "about": "“Design and synthesis of simplified sordaricin derivatives as inhibitors of fungal protein synthesis” (Bioorg Med Chem Lett, 1999)", "key": {"Candida albicans [1]": {"test_system": "Candida albicans", "test": "Minimum inhibitory concentration Candida albicans 2005E cell growth", "assay_type": "functional"}, "Candida albicans [2]": {"test_system": "Candida albicans", "test": "Inhibitory concentration against Candida albicans 2005E protein synthesis", "assay_type": "functional, organism-based"}}, "data": [{"smiles": "CC(C)C1=CC2C[C@]3(C=O)C4CCC(C)C4C[C@]2(CO)[C@]13C(=O)O", "note": "(some centres not stated) [SORDARICIN]", "values": [{"measurement": "MIC", "setting": "Candida albicans [1]", "value": "> 376", "unit": "µM"}, {"measurement": "IC50", "setting": "Candida albicans [2]", "value": 500, "unit": "nM"}]}]}
